Results on 51 compounds are retold here after PMC5706701, “Development of a homogenous high-throughput assay for inositol hexakisphosphate kinase 1 activity” (PLoS ONE, 2017).

Where “and” joins values, the source holds several entries; their conditions need not be identical. Equal entries are not always repeated. Structures can show the parent of a compound that is named as a salt. Where a SMILES comes first, the peptide text is derived from it. The star is where a group is joined. Cbz = O=C(OCc1ccccc1)*

This assay deals with T1, Human IP6K1 (Homo sapiens, UniProt Q92551).
T1 construct: GST (N, cleaved yes); made in house; host or cells: C43 E. coli, pGEX-6P-2
T1 sequence (Q92551 whole entry): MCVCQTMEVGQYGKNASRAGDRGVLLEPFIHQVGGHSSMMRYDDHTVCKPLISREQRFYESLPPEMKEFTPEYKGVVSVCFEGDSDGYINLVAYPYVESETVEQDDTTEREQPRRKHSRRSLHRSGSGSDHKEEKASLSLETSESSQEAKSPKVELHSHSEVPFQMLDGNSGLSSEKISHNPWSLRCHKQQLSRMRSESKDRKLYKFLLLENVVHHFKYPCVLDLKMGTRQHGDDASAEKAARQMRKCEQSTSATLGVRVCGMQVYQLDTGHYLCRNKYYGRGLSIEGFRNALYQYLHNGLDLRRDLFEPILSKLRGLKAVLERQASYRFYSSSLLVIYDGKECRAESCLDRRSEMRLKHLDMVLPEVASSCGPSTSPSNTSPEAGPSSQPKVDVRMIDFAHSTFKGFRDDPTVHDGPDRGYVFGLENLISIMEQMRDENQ
The experiment in a line: IP6K1 high-throughput screen of the Sigma LOPAC (ADP-Glo Max, single point).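 Also: final compound concentration 10µM in 5% DMSO.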 The class given is biochemical.

[1] abbreviates: LOPAC single-point screen, ADP-Glo Max raw signal per well.
Where [2] appears, read: LOPAC single-point screen, Z-score from raw signal with plate average and StDev.
Setting [3] is: LOPAC single-point screen, Z-score against plate average and StDev.
[4] abbreviates: LOPAC single-point screen, ADP-Glo Max luminescence raw signal per well.
[5] abbreviates: LOPAC single-point screen, Z-score relative to plate average and StDev.
The mark [6] stands for this setting: Sigma LOPAC single-point screen, ADP-Glo Max raw signal per well.
Where [7] appears, read: Sigma LOPAC single-point screen, Z-score from plate average and StDev.
Where [8] appears, read: LOPAC single-point screen, Z-score from plate average and StDev.

For the compound `CCCC(=O)NCCc1c2n(c3ccc(OC)cc13)Cc1ccccc1-2` [IIK7], under setting [1], the “Raw Signal” value came to 53632. Under setting [2], this compound gave a Z-score of -0.128.

In the case of `CC(Cc1ccc(O)c(O)c1)C(C)Cc1ccc(O)c(O)c1` (centres unmarked), under setting [1], the “Raw Signal” value was determined as 56278. This compound also registered a Z-score under setting [3] of 0.3166.

As for `O=C(O)/C=C1\CCCc2ccccc2C1O` (centres unmarked) [NCS-382], the “Raw Signal” value under setting [4] came to 49943. This compound came in with a Z-score under setting [5] of -0.7478.

With `C#CCN(C)CCCOc1ccc(Cl)cc1Cl` [Clorgyline hydrochloride], the “Raw Signal” value under setting [4] came to 50699. The same compound displayed a Z-score under setting [5] of -0.6208.

Regarding `CC(C)NCC(O)COc1cccc2[nH]ccc12` (stereo not drawn) [S(-)-Pindolol], the “Raw Signal” value under setting [4] was 52829 and 52276.

On to `N.N.O=C([O-])C1(C(=O)[O-])CCC1.[Pt+2]` [Carboplatin], for which the “Raw Signal” value under setting [4] is on record as 53949. Under setting [5], the Z-score is recorded as -0.6982.

Take `CN[C@H](CC(C)C)C(=O)N[C@H]1C(=O)N[C@@H](CC(N)=O)C(=O)N[C@H]2C(=O)N[C@H]3C(=O)N[C@H](C(=O)N[C@H](C(=O)O)c4cc(O)cc(O)c4-c4cc3ccc4O)[C@H](O)c3ccc(c(Cl)c3)Oc3cc2cc(c3O[C@@H]2O[C@H](CO)[C@@H](O)[C@H](O)[C@H]2O[C@H]2C[C@](C)(N)[C@H](O)[C@H](C)O2)Oc2ccc(cc2Cl)[C@H]1O.Cl`: the “Raw Signal” value under setting [6] worked out at 61643. Under setting [7], this compound gave a Z-score of 1.0917.

In the case of `N/C(=N\C(=O)c1nc(Cl)c(N)nc1N)NCc1ccc(Cl)c(Cl)c1` [3 ,4 -Dichlorobenzamil], the “Raw Signal” value under setting [1] was determined as 56444. Moreover, the Z-score under setting [3] is 0.2593.

For the compound `C[C@@]12C(=O)OC(=O)[C@]1(C)[C@H]1CC[C@@H]2O1` [Cantharidin], the “Raw Signal” value under setting [6] was 61165. Also, under setting [7], the Z-score stood at 0.5727.

With `COc1ccccc1CNCCCCCCNCCCCCCCCNCCCCCCNCc1ccccc1OC.Cl.Cl.Cl.Cl` [Methoctramine tetrahydrochloride], the “Raw Signal” value under setting [6] turned out to be 56889. For the same compound, the Z-score under setting [7] is on record as 0.4193.

On to `COC(=O)[C@H]1[C@H]2C[C@@H]3c4[nH]c5cc(OC)ccc5c4CCN3C[C@H]2C[C@@H](OC(=O)c2cc(OC)c(OC)c(OC)c2)[C@@H]1OC` [Reserpine], for which the “Raw Signal” value under setting [1] was determined as 59002. Moreover, under setting [3], the Z-score is reported as 0.1918.

In the case of `COC(=O)c1c(-c2cc(OC)c(OC)c(OC)c2)c2ccc(OCc3ccccn3)cc2c(=O)n1-c1ccc(N)cc1.O=S(=O)(O)O` [T-1032], the “Raw Signal” value under setting [1] was 55393. Under setting [2], the Z-score is -0.1226.

For the compound `CC(=O)[C@H]1CC[C@H]2[C@@H]3CCC4=CC(=O)CC[C@]4(C)[C@H]3CC[C@]12C` [Progesterone], under setting [1], the “Raw Signal” value is 53663. For the same compound, the Z-score under setting [2] is -0.1227.

For `CC1=NS(=O)(=O)c2cc(Cl)ccc2N1` [Diazoxide], the “Raw Signal” value under setting [6] is 58351. The same compound returned a Z-score under setting [7] of 0.6466.

As for `CC1CCN(CC[C@H]2CCCN2S(=O)(=O)c2cccc(O)c2)CC1.Cl` [SB 269970 hydrochloride], under setting [1], the “Raw Signal” value came out at 57058. Under setting [3], the Z-score is recorded as 0.2009.

With `CC(C)NC[C@H](O)COc1ccc(CC(N)=O)cc1` [S(-)-Atenolol], under setting [1], the “Raw Signal” value turned out to be 56960. The Z-score under setting [2] was -0.1679.

As for `CCNC(=O)[C@H]1O[C@@H](n2cnc3c(N)nc(NCCc4ccc(CCC(=O)O)cc4)nc32)[C@H](O)[C@@H]1O.Cl` [CGS-21680 hydrochloride], the “Raw Signal” value under setting [4] is recorded as 62301. In addition, the Z-score under setting [8] turned out to be 1.449.

With `CC(C)[C@H](NC(=O)OCc1ccccc1)C(=O)N[C@H](C=O)Cc1ccccc1` [MDL 28170] (Cbz-Val-Phe-aldehyde), the “Raw Signal” value under setting [4] was determined as 65838. Under setting [8], this compound came in with a Z-score of 1.923.

`C[N+]1(CCCCC[N+]2(C)CCCC2)CCCC1.O=C([O-])C(O)C(O)C(=O)O.O=C([O-])C(O)C(O)C(=O)O` [Pentolinium di[L(+)-tartrate]]: the “Raw Signal” value under setting [6] stood at 60160. This compound showed a Z-score under setting [7] of 0.9689.

On to `C[C@@H]1O[C@H](C[N+](C)(C)C)CS1.[I-]` [OXA-22 iodide], for which, under setting [6], the “Raw Signal” value came out at 57438. The compound further registered a Z-score under setting [7] of 0.4612.

On to `O=C(O)C1=CCCNC1` [Guvacine hydrochloride], for which the “Raw Signal” value under setting [1] is recorded as 56288. Also, the Z-score under setting [3] was found to be 0.2277.

For `N[C@@H](Cc1ccc(F)cc1)C(=O)O` [p-Fluoro-L-phenylalanine], the “Raw Signal” value under setting [1] is given as 55466. The same compound gave a Z-score under setting [3] of 0.06072.

As to `COc1ccc(Cl)cc1C(=O)NCCc1ccc(S(=O)(=O)NC(=O)NC2CCCCC2)cc1` [Glibenclamide], the “Raw Signal” value under setting [6] was 57524. Also, the Z-score under setting [7] came to 0.4787.

Turning to `COc1ccc(Cc2nccc3cc(OC)c(OC)cc23)cc1OC` [Papaverine hydrochloride], the “Raw Signal” value under setting [6] was 61808. This compound also had a Z-score under setting [7] of 1.246.

For `CC(C)(C)C1(O)CCN2CC3c4ccccc4CCc4cccc(c43)C2C1.Cl` (racemic) [(±)-Butaclamol hydrochloride], the “Raw Signal” value under setting [6] stood at 57693. Under setting [7], this compound displayed a Z-score of 0.513.

As for `C[N+](C)(C)CCCCCC[N+](C)(C)C.[Cl-].[Cl-]` [Hexamethonium dichloride], the “Raw Signal” value under setting [6] is recorded as 57643. Under setting [7], this compound gave a Z-score of 0.5028.

Take `COC[C@H]1OC(=O)c2coc3c2[C@@]1(C)C1=C(C3=O)[C@@H]2CCC(=O)[C@@]2(C)C[C@H]1OC(C)=O` [Wortmannin from Penicillium funiculosum]: the “Raw Signal” value under setting [4] amounted to 53582. The same compound showed a Z-score under setting [5] of -0.4744.

For `CN(C)CC[C@@H](c1ccc(Cl)cc1)c1ccccn1` [(+)-Chlorpheniramine maleate], under setting [1], the “Raw Signal” value was 57307. The Z-score under setting [2] was -0.1068.

For the compound `O=C1NC(c2cccc([N+](=O)[O-])c2)=CCN1c1ccccc1O` [Icilin], the “Raw Signal” value under setting [4] came to 49844. The compound further had a Z-score under setting [5] of -1.081.

For `S=C(Nc1ccccc1)Nc1nccs1` [1-Phenyl-3-(2-thiazolyl)-2-thiourea], under setting [1], the “Raw Signal” value was determined as 53752. Moreover, the Z-score under setting [2] is reported as -0.1078.

As for `C[N+](C)(C)CCCCCCCCCC[N+](C)(C)C.[Br-].[Br-]` [Decamethonium dibromide], the “Raw Signal” value under setting [4] is 52379. Moreover, under setting [5], the Z-score was -0.5662.

`COCCc1ccc(OCC(O)CNC(C)C)cc1.O=C(O)C(O)C(O)C(=O)O` (racemic) [(±)-Metoprolol (+)-tartrate]: the “Raw Signal” value under setting [6] was found to be 61286. In addition, the Z-score under setting [7] was 1.158.

With `C[C@]12CCC(=O)C=C1CC[C@@H]1[C@@H]2[C@@H](O)C[C@@]2(C)[C@H]1CC[C@]2(O)C(=O)COC(=O)CCC(=O)[O-].[Na+]` [Hydrocortisone 21-hemisuccinate sodium], the “Raw Signal” value under setting [6] is recorded as 57689. This compound also registered a Z-score under setting [7] of 0.5122.

On to `NCCCS(=O)(=O)O.[Na]` [3-Amino-1-propanesulfonic acid sodium], for which, under setting [4], the “Raw Signal” value is reported as 52858. Also, the Z-score under setting [5] is -0.8903.

`COCCOC(=O)C1=C(C)NC(C)=C(C(=O)OC(C)C)C1c1cccc([N+](=O)[O-])c1` (centres unmarked) [Nimodipine]: under setting [1], the “Raw Signal” value amounted to 55940. In addition, the Z-score under setting [3] is 0.2599.

Take `N[C@@H](Cn1oc(=O)[nH]c1=O)C(=O)O` [(+)-Quisqualic acid]: the “Raw Signal” value under setting [6] amounted to 59992. Besides, the Z-score under setting [7] amounted to 0.7709.

Turning to `Cl.NCCC[C@](N)(C(=O)O)C(F)F` (racemic), the “Raw Signal” value under setting [4] stood at 51967. Besides, under setting [5], the Z-score is recorded as -0.6499.

In the case of `C[N+](C)(C)CC#CCOC(=O)Nc1cccc(Cl)c1.[Cl-]` [McN-A-343], the “Raw Signal” value under setting [1] is given as 55957. Under setting [2], this compound registered a Z-score of -0.3445.

On to `CC(C)(C=O)Cc1cc(C(C)(C)C)c(O)c(C(C)(C)C)c1` [CGP-13501], for which, under setting [1], the “Raw Signal” value was 59120. Moreover, under setting [3], the Z-score was 0.2126.

Consider `CC(C)NC[C@H](O)c1ccc(O)c(O)c1.O=C(O)C(O)C(O)C(=O)O` [R(-)-Isoproterenol (+)-bitartrate], for which the “Raw Signal” value under setting [4] is recorded as 62194. The same compound showed a Z-score under setting [8] of 1.427.

As to `C[C@@H](N)[C@H]1CC[C@H](C(=O)Nc2ccncc2)CC1.Cl.Cl` [Y-27632 dihydrochloride], the “Raw Signal” value under setting [1] was 53228. In addition, under setting [2], the Z-score is given as -0.3938.

Regarding `CC(C)CC(NC(=O)C1OC1C(=O)O)C(=O)NCCCCNC(=N)N` (centres unmarked) [E-64], under setting [6], the “Raw Signal” value is given as 60196. For the same compound, the Z-score under setting [7] is on record as 1.021.

As to `Cl.NCCS` [Cysteamine hydrochloride], under setting [4], the “Raw Signal” value amounted to 49886. Under setting [5], the Z-score is -0.7574.

As to `O=C(Nc1ccccc1)c1cc([N+](=O)[O-])ccc1Cl` [GW9662], the “Raw Signal” value under setting [1] is listed as 52726. Moreover, the Z-score under setting [2] is listed as -0.2802.

For the compound `Cl.NOCC(=O)O.NOCC(=O)O`, under setting [4], the “Raw Signal” value amounted to 66377. Also, the Z-score under setting [8] came to 1.491.

As to `CCC(=O)N1CCN(C(=O)c2ccccc2)CC1` [DM 235], the “Raw Signal” value under setting [1] is given as 55630. The Z-score under setting [3] was found to be 0.09402.

On to `CC(C)(C)NCC(O)c1ccccc1Cl` (centres unmarked) [Tulobuterol hydrochloride], for which the “Raw Signal” value under setting [1] is 54303. Under setting [2], this compound gave a Z-score of -0.3343.

Consider `C=CC[C@H](N)C(=O)O` [L-allylglycine], for which, under setting [1], the “Raw Signal” value was 58984. Further, the Z-score under setting [3] was 0.1886.

As for `O=C1NCC2(CCN(CCc3ccccc3)CC2)O1` [Fenspiride hydrochloride], the “Raw Signal” value under setting [1] amounted to 54758. Under setting [3], the Z-score is reported as -0.08307.

Regarding `Br.CCCN1CCc2cc(O)cc3c2[C@H]1Cc1ccc(O)c(O)c1-3`, the “Raw Signal” value under setting [4] was determined as 52120. Moreover, the Z-score under setting [5] is -0.6188.

Regarding `COc1ccc([C@@H]2Sc3ccccc3N(CCN(C)C)C(=O)[C@@H]2OC(C)=O)cc1` [Diltiazem hydrochloride], under setting [4], the “Raw Signal” value is 65486. The same compound had a Z-score under setting [8] of 2.096.
